Here are results for nine molecules from patent publication US5705499A, “8-arylalkyl- and 8-arylheteroalkyl-5,11-dihydro-6H-dipyrido[3,2-B:2',3'-e][1]diazepines and their use in the treatment of HIV-1 infection” (Boehringer Ingelheim Pharmaceuticals, Inc., priority 1996, dated 1998).

The subject of data set [1] is AIDS. The note with it: cited from earlier work.
Data set [2] concerns the target T1, RT (WT) (Human immunodeficiency virus type 1 group M subtype B, UniProt P04585). The conditions noted are these: same in vitro tests used for the compounds of the invention; cited from earlier work.
For data set [3], the target named is T2, RT (Y181C) (Human immunodeficiency virus type 1 group M subtype B, UniProt P04585, Y768C).
T2 construct: Heterodimeric RT was eluted using a descending gradient; made in house; host or cells: E. coli
Type of data set: biochemical. The note with it: Y181C mutant HIV-1 RT. The text has this: (§1) REVERSE TRANSCRIPT (RT) ASSAYS
(§2) Among the enzymes for which Human Immunodeficiency Virus (HIV-1) encodes is a reverse transcriptase (1), so-named because it transcribes a DNA copy from an RNA template. This activity can be quantitatively measured in a cell-free enzyme assay, which has been previously described (2), and is based upon the observation that reverse transcriptase is able to use a synthetic template [poly r(C) primed with oligo d(G)] to transcribe a radio-labelled, acid-precipitable DNA strand utilizing ^3 H-dGTP as a substrate. The assay described below utilizes the wild type (WT) enzyme, which is the predominant form of the enzyme observed in patients infected with HIV-1.
Purification of recombinant reverse transcriptase was performed using a combination of methods previously described (5). This procedure is summarized briefly as follows: Bacteria were pelleted E. Coli containing RT-1 wt or RT-1 (Y181 C) were suspended in 50 mM MES, pH 6.0 containing 10% glycerol, lysed in a french press, centrifuged, and the supernates discarded. […]
The 2.4× concentrated stock reaction mixture is aliquoted and stored at -20° C. […] The filters are then dried, placed into plastic bags with Betaplate scintillation cocktail (Pharmacia/LKB) and counted in the Betaplate counter (Pharmacia/LKB). […]

The target in data set [4] is T1, RT (WT). The experiment in a line: Reverse Transcriptase (RT) Assay, wild type. Type of data set: biochemical, HIV-1. More on the design: Heterodimeric RT was eluted using a descending gradient; made in house; host or cells: E. coli (clone pKRT2, obtained from Yale University). The note with it: read-out: RT (WT) Assay % inh. (1 μM).
Text: as §1, §2
The HIV-1 RT expression clone, pKRT2, was obtained from Yale University (3). An overnight culture, grown in 2×YT medium (37° C., 225 rpm) (4), supplemented with 100 μg/mL ampicillin for positive selection was used to inoculate the 2×YT medium. The culture is incubated (37° C., 225 rpm) until it reaches an OD600 of 0.6-0.9. At that time the repressor inhibitor IPTG (isopropyl β-D-thiogalactopyranoside) is added to 0.5 mM, and the mixture is incubated for 2 additional hours.
Purification of recombinant reverse transcriptase was performed using a combination of methods previously described (5). This procedure is summarized briefly as follows: Bacteria were pelleted E. Coli containing RT-1 wt or RT-1 (Y181 C) were suspended in 50 mM MES, pH 6.0 containing 10% glycerol, lysed in a french press, centrifuged, and the supernates discarded. Lysate pellets were extracted with buffer A (50 mM MES, pH 6.0, 100 mM KCl, 50 mM KPi, 10% glycerol, 0.02% hexyl β-glucoside), and re-centrifuged; nucleic acid in supernates was precipitated with 0.1% polyethylenimine. […] Bound RT was eluted with a gradient of 0 to 1.0M (NH4)2 SO4 in buffer B. Heparin-Sepharose fractions containing RT were concentrated (Amicon YM-30 membrane), combined with equal volumes of 2.0M (NH4)2 SO4 in buffer B and injected onto a 21.5×150 mm TSK Phenyl-5PW HIC HPLC column (Phenomenex). Heterodimeric RT was eluted using a descending gradient of 1.0M to 0M (NH4)2 SO4 in buffer B, concentrated, and stored at 4° C.
The 2.4× concentrated stock reaction mixture is aliquoted and stored at -20° C. […] This enzyme assay has been adapted to a 96 well microtiter plate system, and has been previously described (6). Tris buffer (50 mM, pH 7.8), vehicle (solvent diluted to match the compound dilution), or compounds in vehicle are dispensed into 96-well microtiter plates (10 μL/well; 3 wells/compound). The HIV-1 RT enzyme is thawed, diluted in 50 mM Tris pH 7.8 containing 0.05% Chaps to give 1.5 nM enzyme and 25 μL are dispensed per well. Ten μL of 0.5M EDTA are added to the first three wells of the microtiter plate. EDTA chelates the Mg^++ present and prevents reverse transcription. This group serves as background polymerization which is subtracted from all other groups. Twenty-five μl of the 2.4× reaction mixture are added to all wells and the assay is allowed to incubate at room temperature for 30 minutes. The assay is terminated by precipitating the DNA in each well with 60μL of sodium pyrophosphate (2% w/v) in 10% trichloracetic acid (TCA) (10% w/v). The microtiter plate is incubated for 15 minutes at 4° C. and the precipitate is harvested onto #30 glass fiber paper (Schleicher & Schuell) using a Tomtech 96-well harvester. The filters are then dried, placed into plastic bags with Betaplate scintillation cocktail (Pharmacia/LKB) and counted in the Betaplate counter (Pharmacia/LKB).
The calculation for percent inhibition is as follows: [formula]

The test system of data set [5] is HTLV-IIIB strain of HIV-1 (in C8166-45 cells). The experiment in a line: Syncytia (human T-cell culture) Assay. The data set is classed as cell-based. The conditions noted are these: Human immunodeficiency virus 1, T-cell; C8166-45 cells, HTLV-IIIB strain, 72 hours; read-out: Syncytia Assay IC50. The method, then:
Formation of syncytia is a feature of in vitro cultures of CD4+ T-cells infected with HIV-1. In this assay (1), T-cells are treated with a putative replication inhibiting compound and then infected with HIV-1. After incubation, the culture is checked for the formation of syncytia. The absence or reduction in the number of syncytia is used as a measure of the test compound's ability to inhibit HIV replication.
The target cells, designated C8166-45, are a fusion of umbilical blood lymphocytes and T-cells from leukemia-lymphoma patients and are established at an initial density of 5×10^4 per 90 μl in RPMI 1640 (+10% fetal bovine serum) culture medium in 96 well flat bottom plates. A selected amount of test compound, dissolved in DMSO, is included. 50 TCID50 's (the dose that results in induced effect in 50% of test cultures) of the HTLV-IIIB strain of HIV-1 (3) are inoculated into each culture. Control cultures receive compound or virus only.
The cultures are incubated for 72 hours (4), at 37° C. with 5% carbon dioxide, and then visually examined for the frequency and distribution of virus-induced giant cell syncytia. The percent inhibition by the test compound is determined by comparison with control values.

Data set [6] relates to C8166-45 cell line. The experiment in a line: MTT Assay (cytotoxicity). The data set is classed as cell-based, human. The note with it: C8166-45 cells, five days.

Broadly, the IC50 is the concentration that gives 50% inhibition.

Turning to `Cc1ccnc2c1NC(=O)c1cccnc1N2C1CC1` [11-cyclopropyl-5,11-dihydro-4-methyl-6H-dipyrido[3,2-b;2',3', -e][1,4]diazepine-6-one], the “active in the treatment of AIDS in human tests” value in data set [1] is “active in the treatment of AIDS in human tests”. Moreover, the “active in the same in vitro tests” value in data set [2] is given as “active in the same in vitro tests”.
As for “2-Chloro-5,11-dihydro-11-ethyl-8-[2-(3-methylsulfonamidophenyl)ethyl]-6H-dipyrido[3,2-b:2',3'-e][1,4]diazepin-6-one [Example 25]”, the “RT (Y181C) Assay % inh. (1 μM)” value in data set [3] was determined as 70%.
Take `CCN1c2ncc(CCc3ccncc3)cc2C(=O)N(C)c2ccc(N)nc21` [Example 5, 2-Amino-5,11-dihydro-11-ethyl-8-[2-(4-pyridil)ethyl]-5-methyl-6H -dipyrido[3,2-b:2',3'-e][1,4]diazepin-6-one]: the inhibition at 1 µM in data set [4] came to 68%.
For the molecule `CCN1c2ncc(CCc3ccncc3)cc2C(=O)N(C)c2cccnc21` [Example 2, 5,11-Dihydro-11-ethyl-5-methyl-8-[2-(pyrid-4-yl)ethyl]-6H-dipyrido[3,2-b:2',3'-e][1,4]diazepin-6-one], in data set [4], the inhibition at 1 µM amounted to 95%. In data set [5], the IC50 was 20 nM. Besides, in data set [6], the “MTT Assay CC30” value is > 60000 nM.
Take `CCN1c2ncc(CCc3ccncc3)cc2C(=O)N(C)c2ccc(C#N)nc21` [Example 4, 2-Cyano-5,11-dihydro-11-ethyl-8-[2-(4-pyridyl)ethyl]-5-methyl-6H-dipyrido-[3,2-b:2',3'-e][1,4]diazepin-6-one]: the inhibition at 1 µM in data set [4] worked out at 82%.
In the case of “5,11-Dihydro-11-ethyl-5-methyl-8-phenylethynyl-6H-dipyrido[3,2-b:2',3'-e][1,4]diazepin-6-one [Example 48]”, in data set [3], the “RT (Y181C) Assay % inh. (1 μM)” value came to 17%.
As to `CCN1c2ncc(/C=C/c3ccncc3)cc2C(=O)N(C)c2cccnc21` [Example 1, 5,11-Dihydro-11-ethyl-5-methyl-8-[trans-2-(pyrid-4-yl)ethen-1-yl]-6H H-dipyridol[3,2-b:2',3'-e][1,4]diazepin-6-one], the inhibition at 1 µM in data set [4] was 32%.
Turning to `CCN1c2ncc(CCc3ccncc3)cc2C(=O)N(C)c2ccc(O)nc21` [Example 6, 5,11-Dihydro-11-ethyl-2-hydroxy-8-[2-(4-pyridil)ethyl]5-methyl-6H-dipyrido[3,2-b:2',3'-e][1,4]diazepin-6-one], the inhibition at 1 µM in data set [4] is 21%. Further, in data set [6], the “MTT Assay CC30” value was > 256000 nM.
In the case of `CCN1c2ncc(CCc3ccncc3)cc2C(=O)N(C)c2ccc(Cl)nc21` [Example 3, 2-Chloro-5,11-dihydro-11ethyl-5methyl-8-[2-(pyrid-4-yl)ethyl]-6H-dipyrido-[3,2-b:2',3'-e][1,4]diazepin-6-one], the inhibition at 1 µM in data set [4] worked out at 95%. In data set [5], the IC50 was 10 nM. Further, the “MTT Assay CC30” value in data set [6] is 70000 nM.
